According to US7833513B2, “Treatment of Alzheimer's Disease” (Rhode Island Hospital, priority 2004, dated 2010):

Columns and labels:
Assay type in all cases: in vivo, Long Evans rat
IGF-I receptor = molecular target: T1, IGF-I receptor (Rattus norvegicus, UniProt P24062); assay: ic-STZ ± PPAR agonist: equilibrium and saturation binding to IGF-I receptors in the brain; settings: for BMAX, IGF-1 receptor saturation binding in brains of treated rats: [125I]-IGF-I tracer, pooled brain membranes, 4 weeks after ic-STZ ± IP PPAR agonist; for IGF-I receptor binding: cerebellum
T1 construct: from tissue; host or cells: rat brain (temporal lobe)
T1 sequence (P24062 31-737 limits assumed): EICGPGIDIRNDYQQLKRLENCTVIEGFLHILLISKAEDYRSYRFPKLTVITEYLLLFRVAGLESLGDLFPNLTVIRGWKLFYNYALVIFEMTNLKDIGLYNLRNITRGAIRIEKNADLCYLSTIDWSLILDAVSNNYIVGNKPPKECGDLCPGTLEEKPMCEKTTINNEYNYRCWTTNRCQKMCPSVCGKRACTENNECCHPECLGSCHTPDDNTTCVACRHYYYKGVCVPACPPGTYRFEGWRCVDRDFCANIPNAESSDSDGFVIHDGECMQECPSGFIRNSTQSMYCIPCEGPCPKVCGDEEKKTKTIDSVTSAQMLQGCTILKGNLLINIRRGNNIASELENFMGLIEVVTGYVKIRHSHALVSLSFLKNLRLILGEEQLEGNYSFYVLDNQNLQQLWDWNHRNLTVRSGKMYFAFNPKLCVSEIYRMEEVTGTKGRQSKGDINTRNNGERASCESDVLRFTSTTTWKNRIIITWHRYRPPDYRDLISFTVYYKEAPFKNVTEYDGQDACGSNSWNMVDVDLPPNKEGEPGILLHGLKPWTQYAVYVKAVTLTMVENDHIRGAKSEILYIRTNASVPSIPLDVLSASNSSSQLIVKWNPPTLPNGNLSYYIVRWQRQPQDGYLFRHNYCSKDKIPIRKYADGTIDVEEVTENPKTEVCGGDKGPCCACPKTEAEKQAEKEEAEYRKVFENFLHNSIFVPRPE
T1 sequence (P24062 742-1370 limits assumed): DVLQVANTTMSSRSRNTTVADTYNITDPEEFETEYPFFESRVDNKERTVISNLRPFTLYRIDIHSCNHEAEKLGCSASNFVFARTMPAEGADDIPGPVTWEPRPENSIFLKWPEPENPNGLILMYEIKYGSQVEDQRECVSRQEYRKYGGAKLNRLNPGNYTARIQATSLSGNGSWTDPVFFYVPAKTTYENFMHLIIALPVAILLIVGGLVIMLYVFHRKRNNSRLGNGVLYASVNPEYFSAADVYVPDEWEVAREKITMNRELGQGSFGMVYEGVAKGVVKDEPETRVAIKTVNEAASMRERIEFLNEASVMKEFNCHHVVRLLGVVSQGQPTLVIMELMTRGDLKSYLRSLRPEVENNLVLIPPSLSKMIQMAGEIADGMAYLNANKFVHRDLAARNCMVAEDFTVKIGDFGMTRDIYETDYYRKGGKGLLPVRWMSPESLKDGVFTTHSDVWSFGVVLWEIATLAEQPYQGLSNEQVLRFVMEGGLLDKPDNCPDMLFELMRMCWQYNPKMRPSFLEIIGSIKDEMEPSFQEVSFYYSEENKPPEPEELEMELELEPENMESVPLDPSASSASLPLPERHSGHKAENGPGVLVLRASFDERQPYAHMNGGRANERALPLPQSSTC
Description: On the same day, sub-sets of the ic-STZ group were given a single intra-peritoneal injection of vehicle (saline), or a PPAR-α (GW7647; 25 ug/Kg), PPAR-δ (L-165,041; 2 μg/Kg), or PPAR-γ (F-L-Leu; 20 μg/Kg) activator (CalBiochem, Carlsbad, Calif.). […] In addition, at 4 weeks of age, memory and learning were evaluated using a Morris Water Maze (R. W. Hickey, M. Akino, S. Strausbaugh, G. M. De Courten-Myers. Use of the Morris water maze and acoustic startle chamber to evaluate neurologic injury after asphyxial arrest in rats. Pediatr Res 39(1) (1996), 77-84). The procedures and use of rats in these experiments were approved by the Lifespan-Rhode Island Hospital IACUC committee.
Membrane protein extracted from fresh frozen brain tissue was used for competitive equilibrium and saturation binding assays. For total binding in equilibrium binding assays, duplicate samples were incubated in 100 μl reactions containing binding buffer (100 mM HEPES, pH 8.0, 118 mM NaCl, 1.2 mM MgSO4, 8.8 mM dextrose, 5 mM KCl, 1% bovine serum albumin) and 100 nCi/ml of [^125I] […] To measure total binding in saturation binding assays, samples from 8-12 brains per group were pooled in equal proportions, and duplicate samples were incubated in 100 μl reactions containing binding buffer and 0.0031 to 1 μCi/ml of [^125I] […] To detect non-specific binding in the equilibrium and saturation binding assays, duplicate reactions were incubated with the same concentrations of radiolabeled tracer plus 0.1 μM unlabeled (cold) competitive ligand. After 16 hours incubation at 4° C., bound radiolabeled tracer was precipitated with bovine gamma globulin and polyethylene glycol 8000. The precipitate (bound ligand) and supernatant (free ligand) fractions were counted in an LKB CompuGamma CS Gamma counter. Specific binding was calculated by subtracting fmols of non-specific binding, i.e. amount bound in the presence of excess cold ligand, from total fmols bound in the absence of unlabeled competitive ligand. GraphPad Prism 4 software (San Diego, Calif.) was used to calculate saturation binding (BMAX) and binding affinity (Kd) for each data set.

IGF-II receptor = settings: temporal lobe membrane extracts
Description: Membrane proteins were extracted from fresh frozen temporal lobe tissue (˜100 mg) by Polytron (Glen Mils Inc., Clifton, N.J.) homogenization in 5 volumes of NP-40 lysis buffer (50 mM Tris-HCl, pH 7.5, 150 mM NaCl, 1 mM EDTA, 2 mM EGTA, 1% NP-40) containing protease (1 mM PMSF, 0.1 mM TPCK, 1 μg/ml aprotinin, 1 μg/ml pepstatin A, 0.5 μg/ml leupeptin, 1 mM NaF, 1 mM Na4P2O7) and phosphatase (2 mM Na3VO4) inhibitors. The supernatant fractions obtained after centrifuging the samples at 10,000×g for 15 minutes at 4° C. were used in the binding assays. […] Protein concentrations were measured with the bicinchoninic acid (BCA) assay (Pierce, Rockford, Ill.).
Competitive equilibrium binding assays were used to assess growth factor binding in relation to ic-STZ-treatment. […]
All reactions were performed in 1.5 ml Eppendorff tubes, and the incubations were performed at 4° C. for 16 hours with gentle platform agitation. […] Each sample was counted for 1 minute in an LKB CompuGamma CS Gamma counter. Specific binding was calculated by subtracting fmols of non-specific binding, i.e. amount bound in the presence of excess cold ligand, from total fmols bound (absence of unlabeled competitive ligand). The binding assay results were analyzed using the GraphPad Prism 4 software (GraphPad Software, Inc., San Diego, Calif.).

[1] = tested on: brain immunoreactivity (p53, GFAP, phospho-tau, ubiquitin, Aβ, ChAT, AChE); assay: ic-STZ model: immunohistochemical staining of brain
Source text: Paraffin-embedded histological sections of pancreas (5 μm thick) and brain (8 μm thick) were stained with hematoxylin and eosin (H&E) and examined for histopathological lesions, i.e., inflammation, necrosis, and islet cell degeneration. […] Paraffin sections of brain were immunostained with monoclonal or polyclonal antibodies to phospho-tau, Aβ, p53, ubiquitin, glial fibrillary acidic protein (GFAP), choline acetyltransferase (ChAT), and acetylcholinesterase (AChE) to characterize the nature of ic-STZ-induced AD-type neurodegeneration. As negative controls for the immunostaining reactions, either the primary antibody was omitted or non-relevant monoclonal antibody to Hepatitis B virus was used in place of the relevant antibody.
Prior to immunostaining, the deparaffinized, re-hydrated tissue sections were sequentially treated with 0.1 mg/ml saponin in phosphate buffered saline (10 mM sodium phosphate, 0.9% NaCl, pH 7.4; PBS), for 20 minutes at room temperature. Endogenous peroxidase activity was quenched by treating the tissue sections with 3% hydrogen peroxide in methanol for 10 minutes, and non-specific binding sites were blocked by a 30-minute incubation in SuperBlock-TBS (Pierce Chemical Co., Rockford, Ill.) at room temperature. After overnight incubation at 4° C. with antibodies diluted to 0.1-1 μg/ml (according to the manufacturer's recommendations), immunoreactivity was detected using rat tissue-pre-adsorbed biotinylated secondary antibodies, avidin biotin horseradish peroxidase complex (ABC) reagents, and diaminobenzidine as the chromogen (Vector Laboratories, Burlingame, Calif.). de la Monte et al., Lab. Invest. 80:1323 (2000). The sections were counterstained with hematoxylin and preserved with mounting medium and coverglass. All sections were examined under code.

[2] = temporal cortex, hippocampus, hypothalamus/thalamus, cerebellar cortex

CCCc1c(OCCCOc2ccc(OCC(=O)O)cc2)ccc(C(C)=O)c1O [PPAR-δ agonist, L-165,041]
BMAX, IGF-1 receptor saturation binding in brains of treated rats (IGF-I receptor): 0.7399 fmol/mg protein | IGF-I receptor binding (IGF-I receptor): significantly increased

CC(C)(Sc1ccc(CCN(CCCCC2CCCCC2)C(=O)NC2CCCCC2)cc1)C(=O)O [PPAR-α agonist, GW7647]
BMAX, IGF-1 receptor saturation binding in brains of treated rats (IGF-I receptor): 0.6361 fmol/mg protein

CC(C)C[C@H](NC(=O)OCC1c2ccccc2-c2ccccc21)C(=O)O [PPAR-γ agonist, F-L-Leu]
BMAX, IGF-1 receptor saturation binding in brains of treated rats (IGF-I receptor): 3.123 fmol/mg protein | IGF-I receptor binding (IGF-I receptor): significantly increased | BMAX for IGF-I receptor (in words) vs ic-STZ group (IGF-I receptor; rat, in vivo): increased

CN(N=O)C(=O)NC1C(O)OC(CO)C(O)C1O (stereo not drawn) [STZ]
IGF-II binding vs control (IGF-II receptor): significantly reduced | p53 immunoreactivity in brain ([1]; 14- and 21-day post-treatment): only slightly increased relative to control | p53 immunoreactivity in brain ([1]; Day 7 post-treatment): prominently increased | Aβ immunoreactivity ([1]; neurons, vessels, plaque-like deposits): increased | AChE immunoreactivity ([1]; rat, in vivo): increased | ChAT immunoreactivity ([1]; rat, in vivo): decreased | GFAP immunoreactivity ([1]; rat, in vivo): globally increased | phospho-tau immunoreactivity [1, 2]: increased | ubiquitin immunoreactivity [1, 2]: increased | BMAX, IGF-1 receptor saturation binding in brains of treated rats (IGF-I receptor): 1.204 fmol/mg protein | binding to IGF-I receptors (IGF-I receptor; hypothalamus or cerebellum): not in the hypothalamus or cerebellum | binding to IGF-I receptors (IGF-I receptor; temporal lobe): significantly reduced
